How the values were obtained:
[1] = Drug uptake in anesthetized cynomolgus monkey brain occipital lobe after 85 mins postinjection; assay type: ADME, organism-based, Macaca fascicularis; settings: in vivo
[2] = Ratio of drug uptake in pons to cerebellum in anesthetized cynomolgus monkey after 18.5 mins postinjection; assay type: ADME, organism-based, Macaca fascicularis; settings: in vivo
Thalamus [3] = test: Drug uptake in anesthetized cynomolgus monkey brain thalamus after 2.5 mins postinjection; assay type: ADME, organism-based, Macaca fascicularis; set-up: unit not given here; settings: in vivo
Caudate [4] = test: Drug uptake in anesthetized cynomolgus monkey brain caudate after 45 mins postinjection; assay type: ADME, organism-based, Macaca fascicularis, Caudate nucleus; settings: in vivo, 0.75 h
Thalamus [5] = test: Drug uptake in anesthetized cynomolgus monkey brain thalamus after 85 mins postinjection; assay type: ADME, organism-based, Macaca fascicularis; set-up: unit not given here; settings: in vivo
Pons [6] = test: Drug uptake in anesthetized cynomolgus monkey brain pons after 12.5 mins postinjection; assay type: ADME, organism-based, Macaca fascicularis; settings: in vivo
Midbrain [7] = test: Drug uptake in anesthetized cynomolgus monkey brain midbrain after 175 mins postinjection; assay type: ADME, organism-based, Macaca fascicularis; settings: in vivo
Midbrain [8] = test: Drug uptake in anesthetized cynomolgus monkey brain midbrain after 145 mins postinjection; assay type: ADME, organism-based, Macaca fascicularis; settings: in vivo
[9] = Drug uptake in anesthetized cynomolgus monkey brain occipital lobe after 0.5 mins postinjection; assay type: ADME, organism-based, Macaca fascicularis; settings: in vivo
[10] = Ratio of drug uptake in midbrain to cerebellum in anesthetized cynomolgus monkey after 145 mins postinjection; assay type: ADME, organism-based, Macaca fascicularis; settings: in vivo
[11] = Ratio of drug uptake in occipital lobe to cerebellum in anesthetized cynomolgus monkey after 105 mins postinjection; assay type: ADME, organism-based, Macaca fascicularis; settings: in vivo, 1.75 h
Caudate [12] = test: Drug uptake in anesthetized cynomolgus monkey brain caudate after 6.5 mins postinjection; assay type: ADME, organism-based, Macaca fascicularis, Caudate nucleus; settings: in vivo
[13] = Drug uptake in anesthetized cynomolgus monkey brain cerebellum after 3.5 mins postinjection; assay type: ADME, organism-based, Macaca fascicularis; settings: in vivo
[14] = Ratio of drug uptake in midbrain to cerebellum in anesthetized cynomolgus monkey after 235 mins postinjection; assay type: ADME, organism-based, Macaca fascicularis; settings: in vivo
[15] = Drug uptake in anesthetized cynomolgus monkey brain frontal lobe after 225 mins postinjection; assay type: ADME, organism-based, Macaca fascicularis; settings: in vivo, 3.75 h
Medulla [16] = test: Drug uptake in anesthetized cynomolgus monkey brain medulla after 175 mins postinjection; assay type: ADME, organism-based, Macaca fascicularis; settings: in vivo
[17] = Ratio of drug uptake in thalamus to cerebellum in anesthetized cynomolgus monkey after 95 mins postinjection; assay type: ADME, organism-based, Macaca fascicularis; settings: in vivo
Putamen [18] = test: Drug uptake in anesthetized cynomolgus monkey brain putamen after 4.5 mins postinjection; assay type: ADME, organism-based, Macaca fascicularis; set-up: unit not given here; settings: in vivo, 0.075 h
Medulla [19] = test: Drug uptake in anesthetized cynomolgus monkey brain medulla after 18.5 mins postinjection; assay type: ADME, organism-based, Macaca fascicularis; settings: in vivo
[20] = Ratio of drug uptake in occipital lobe to cerebellum in anesthetized cynomolgus monkey after 115 mins postinjection; assay type: ADME, organism-based, Macaca fascicularis; settings: in vivo
Pons [21] = test: Drug uptake in anesthetized cynomolgus monkey brain pons after 155 mins postinjection; assay type: ADME, organism-based, Macaca fascicularis; settings: in vivo
Caudate [22] = test: Drug uptake in anesthetized cynomolgus monkey brain caudate after 18.5 mins postinjection; assay type: ADME, organism-based, Macaca fascicularis, Caudate nucleus; settings: in vivo
Medulla [23] = test: Drug uptake in anesthetized cynomolgus monkey brain medulla after 2.5 mins postinjection; assay type: ADME, organism-based, Macaca fascicularis; settings: in vivo
[24] = Ratio of drug uptake in midbrain to cerebellum in anesthetized cynomolgus monkey after 135 mins postinjection; assay type: ADME, organism-based, Macaca fascicularis; settings: in vivo, 2.25 h
Caudate [25] = test: Drug uptake in anesthetized cynomolgus monkey brain caudate after 115 mins postinjection; assay type: ADME, organism-based, Macaca fascicularis, Caudate nucleus; settings: in vivo
[26] = Drug uptake in anesthetized cynomolgus monkey brain cerebellum after 135 mins postinjection; assay type: ADME, organism-based, Macaca fascicularis; settings: in vivo, 2.25 h
[27] = Drug uptake in anesthetized cynomolgus monkey brain frontal lobe after 6.5 mins postinjection; assay type: ADME, organism-based, Macaca fascicularis; settings: in vivo
[28] = Drug uptake in anesthetized cynomolgus monkey brain occipital lobe after 3.5 mins postinjection; assay type: ADME, organism-based, Macaca fascicularis; settings: in vivo
[29] = Ratio of drug uptake in midbrain to cerebellum in anesthetized cynomolgus monkey after 22.5 mins postinjection; assay type: ADME, organism-based, Macaca fascicularis; settings: in vivo, 0.375 h
Thalamus [30] = test: Drug uptake in anesthetized cynomolgus monkey brain thalamus after 115 mins postinjection; assay type: ADME, organism-based, Macaca fascicularis; set-up: unit not given here; settings: in vivo
[31] = Ratio of drug uptake in medulla to cerebellum in anesthetized cynomolgus monkey after 135 mins postinjection; assay type: ADME, organism-based, Macaca fascicularis; settings: in vivo, 2.25 h
Midbrain [32] = test: Drug uptake in anesthetized cynomolgus monkey brain midbrain after 65 mins postinjection; assay type: ADME, organism-based, Macaca fascicularis; set-up: unit not given here; settings: in vivo
Thalamus [33] = test: Drug uptake in anesthetized cynomolgus monkey brain thalamus after 35 mins postinjection; assay type: ADME, organism-based, Macaca fascicularis; set-up: unit not given here; settings: in vivo
[34] = Drug uptake in anesthetized cynomolgus monkey brain cerebellum after 9.5 mins postinjection; assay type: ADME, organism-based, Macaca fascicularis; settings: in vivo
[35] = Drug uptake in anesthetized cynomolgus monkey brain cerebellum after 115 mins postinjection; assay type: ADME, organism-based, Macaca fascicularis; settings: in vivo
[36] = Drug uptake in anesthetized cynomolgus monkey brain frontal lobe after 4.5 mins postinjection; assay type: ADME, organism-based, Macaca fascicularis; settings: in vivo, 0.075 h
Putamen [37] = test: Drug uptake in anesthetized cynomolgus monkey brain putamen after 27.5 mins postinjection; assay type: ADME, organism-based, Macaca fascicularis; set-up: unit not given here; settings: in vivo
Medulla [38] = test: Drug uptake in anesthetized cynomolgus monkey brain medulla after 225 mins postinjection; assay type: ADME, organism-based, Macaca fascicularis; settings: in vivo, 3.75 h
[39] = Drug uptake in anesthetized cynomolgus monkey brain occipital lobe after 155 mins postinjection; assay type: ADME, organism-based, Macaca fascicularis; settings: in vivo
[40] = Drug uptake in anesthetized cynomolgus monkey brain frontal lobe after 85 mins postinjection; assay type: ADME, organism-based, Macaca fascicularis; settings: in vivo
[41] = Drug uptake in anesthetized cynomolgus monkey brain cerebellum after 215 mins postinjection; assay type: ADME, organism-based, Macaca fascicularis; settings: in vivo
[42] = Drug uptake in anesthetized cynomolgus monkey brain frontal lobe after 1.5 mins postinjection; assay type: ADME, organism-based, Macaca fascicularis; settings: in vivo, 0.025 h
[43] = Ratio of drug uptake in frontal lobe to cerebellum in anesthetized cynomolgus monkey after 135 mins postinjection; assay type: ADME, organism-based, Macaca fascicularis; settings: in vivo, 2.25 h
Thalamus [44] = test: Drug uptake in anesthetized cynomolgus monkey brain thalamus after 125 mins postinjection; assay type: ADME, organism-based, Macaca fascicularis; set-up: unit not given here; settings: in vivo
[45] = Ratio of drug uptake in caudate to cerebellum in anesthetized cynomolgus monkey after 55 mins postinjection; assay type: ADME, organism-based, Macaca fascicularis; settings: in vivo
Midbrain [46] = test: Drug uptake in anesthetized cynomolgus monkey brain midbrain after 1.5 mins postinjection; assay type: ADME, organism-based, Macaca fascicularis; set-up: unit not given here; settings: in vivo, 0.025 h
Medulla [47] = test: Drug uptake in anesthetized cynomolgus monkey brain medulla after 45 mins postinjection; assay type: ADME, organism-based, Macaca fascicularis; settings: in vivo, 0.75 h
Caudate [48] = test: Drug uptake in anesthetized cynomolgus monkey brain caudate after 12.5 mins postinjection; assay type: ADME, organism-based, Macaca fascicularis, Caudate nucleus; settings: in vivo
[49] = Drug uptake in anesthetized cynomolgus monkey brain frontal lobe after 75 mins postinjection; assay type: ADME, organism-based, Macaca fascicularis; settings: in vivo, 1.25 h
Putamen [50] = test: Drug uptake in anesthetized cynomolgus monkey brain putamen after 18.5 mins postinjection; assay type: ADME, organism-based, Macaca fascicularis; set-up: unit not given here; settings: in vivo
Thalamus [51] = test: Drug uptake in anesthetized cynomolgus monkey brain thalamus after 175 mins postinjection; assay type: ADME, organism-based, Macaca fascicularis; set-up: unit not given here; settings: in vivo
[52] = Drug uptake in anesthetized cynomolgus monkey brain frontal lobe after 235 mins postinjection; assay type: ADME, organism-based, Macaca fascicularis; settings: in vivo
Midbrain [53] = test: Drug uptake in anesthetized cynomolgus monkey brain midbrain after 235 mins postinjection; assay type: ADME, organism-based, Macaca fascicularis; settings: in vivo
[54] = Ratio of drug uptake in pons to cerebellum in anesthetized cynomolgus monkey after 225 mins postinjection; assay type: ADME, organism-based, Macaca fascicularis; settings: in vivo, 3.75 h
[55] = Ratio of drug uptake in caudate to cerebellum in anesthetized cynomolgus monkey after 65 mins postinjection; assay type: ADME, organism-based, Macaca fascicularis; settings: in vivo
[56] = Ratio of drug uptake in pons to cerebellum in anesthetized cynomolgus monkey after 0.5 mins postinjection; assay type: ADME, organism-based, Macaca fascicularis; settings: in vivo

## O=C(OCCC[18F])C1C2CCC(CC1c1cccc(/C=C\Br)c1)N2 (stereo unspecified)
[1]
  Drug uptake: 4.19
[2]
  Ratio: 0.7
Thalamus [3]
  Drug uptake: 1.12
Caudate [4]
  Drug uptake: 5.32
Thalamus [5]
  Drug uptake: 5.27
Pons [6]
  Drug uptake: 4.51
Midbrain [7]
  Drug uptake: 4.91
Midbrain [8]
  Drug uptake: 5.18
[9]
  Drug uptake: 0.01
[10]
  Ratio: 1.8
[11]
  Ratio: 1.1
Caudate [12]
  Drug uptake: 3.14
[13]
  Drug uptake: 2.81
[14]
  Ratio: 2.3
[15]
  Drug uptake: 1.97
Medulla [16]
  Drug uptake: 4.26
[17]
  Ratio: 1.4
Putamen [18]
  Drug uptake: 3.11
Medulla [19]
  Drug uptake: 5.87
[20]
  Ratio: 1.1
Pons [21]
  Drug uptake: 4.03
Caudate [22]
  Drug uptake: 4.53
Medulla [23]
  Drug uptake: 1.62
[24]
  Ratio: 1.9
Caudate [25]
  Drug uptake: 4.71
[26]
  Drug uptake: 2.89
[27]
  Drug uptake: 2.95
[28]
  Drug uptake: 1.51
[29]
  Ratio: 1
Thalamus [30]
  Drug uptake: 4.82
[31]
  Ratio: 1.7
Midbrain [32]
  Drug uptake: 6.06
Thalamus [33]
  Drug uptake: 5.26
[34]
  Drug uptake: 5.92
[35]
  Drug uptake: 3.29
[36]
  Drug uptake: 1.85
Putamen [37]
  Drug uptake: 5.95
Medulla [38]
  Drug uptake: 3.64
[39]
  Drug uptake: 3.27
[40]
  Drug uptake: 3.32
[41]
  Drug uptake: 2.1
[42]
  Drug uptake: 0.25
[43]
  Ratio: 1
Thalamus [44]
  Drug uptake: 4.71
[45]
  Ratio: 1.1
Midbrain [46]
  Drug uptake: 0.48
Medulla [47]
  Drug uptake: 5.8
Caudate [48]
  Drug uptake: 4.23
[49]
  Drug uptake: 3.49
Putamen [50]
  Drug uptake: 5.83
Thalamus [51]
  Drug uptake: 4
[52]
  Drug uptake: 2.01
Midbrain [53]
  Drug uptake: 4.33
[54]
  Ratio: 1.6
[55]
  Ratio: 1.2
[56]
  Ratio: 1.6
